Data: ChEMBL document CHEMBL3112450, “Synthesis and in vitro antitumor evaluation of primary amine substituted quinazoline linked benzimidazole” (Bioorg Med Chem Lett, 2014)

Tests used:
Format in all cases: functional
TK-10 = experiment: Cytotoxicity against human TK10 cells assessed as cell growth at 10^-4 M after 48 hrs by SRB assay; conditions: TK-10, 48 h, read-out: Activity
[1] = Cytotoxicity against human UO31 cells assessed as cell growth at 10^-4 M after 48 hrs by SRB assay; conditions: UO-31, 48 h, read-out: Activity
SN12C = experiment: Cytotoxicity against human SN12C cells assessed as cell growth at 10^-4 M after 48 hrs by SRB assay; conditions: read-out: Activity
MDA-MB-435 [2] = experiment: Cytotoxicity against human MDA-MB-435 cells assessed as cell growth at 10^-7 M after 48 hrs by SRB assay; conditions: MDA-MB-435, 48 h, read-out: Activity
Malme-3M [3] = experiment: Cytotoxicity against human MALME-3M cells assessed as cell growth at 10^-7 M after 48 hrs by SRB assay; conditions: read-out: Activity
NCI-H226 = experiment: Cytotoxicity against human NCI-H226 cells assessed as cell growth at 10^-7 M after 48 hrs by SRB assay; conditions: NCI-H226, 48 h, read-out: Activity
BT-549 [4] = experiment: Cytotoxicity against human BT549 cells assessed as cell growth at 10^-8 M after 48 hrs by SRB assay; conditions: BT-549, 48 h, read-out: Activity
MCF7 = experiment: Cytotoxicity against human MCF7 cells assessed as cell growth at 10^-8 M after 48 hrs by SRB assay; conditions: MCF7, 48 h, read-out: Activity
786-0 [5] = experiment: Cytotoxicity against human 786-0 cells assessed as cell growth at 10^-4 M after 48 hrs by SRB assay; conditions: 786-0, 48 h, read-out: Activity
[6] = Cytotoxicity against human NCI-ADR-RES cells assessed as cell growth at 10^-4 M after 48 hrs by SRB assay; conditions: read-out: Activity
IGROV-1 = experiment: Cytotoxicity against human IGROV1 cells assessed as cell growth at 10^-4 M after 48 hrs by SRB assay; conditions: IGROV-1, 48 h, read-out: Activity
MDA-MB-435 [7] = experiment: Cytotoxicity against human MDA-MB-435 cells assessed as cell growth at 10^-4 M after 48 hrs by SRB assay; conditions: MDA-MB-435, 48 h, read-out: Activity
SK-MEL-2 = experiment: Cytotoxicity against human SK-MEL-2 cells assessed as cell growth at 10^-4 M after 48 hrs by SRB assay; conditions: SK-MEL-2, 48 h, read-out: Activity
SNB-19 = experiment: Cytotoxicity against human SNB19 cells assessed as cell growth at 10^-4 M after 48 hrs by SRB assay; conditions: SNB-19, 48 h, read-out: Activity
SF-539 = experiment: Cytotoxicity against human SF539 cells assessed as cell growth at 10^-4 M after 48 hrs by SRB assay; conditions: SF-539, 48 h, read-out: Activity
SW-620 [8] = experiment: Cytotoxicity against human SW620 cells assessed as cell growth at 10^-4 M after 48 hrs by SRB assay; conditions: SW-620, 48 h, read-out: Activity
HT-29 [9] = experiment: Cytotoxicity against human HT-29 cells assessed as cell growth at 10^-4 M after 48 hrs by SRB assay; conditions: HT-29, 48 h, read-out: Activity
HCT-116 [10] = experiment: Cytotoxicity against human HCT116 cells assessed as cell growth at 10^-4 M after 48 hrs by SRB assay; conditions: HCT-116, 48 h, read-out: Activity
COLO 205 [11] = experiment: Cytotoxicity against human COLO205 cells assessed as cell growth at 10^-4 M after 48 hrs by SRB assay; conditions: COLO 205, 48 h, read-out: Activity
RPMI-8226 [12] = experiment: Cytotoxicity against human RPMI8226 cells assessed as cell growth at 10^-4 M after 48 hrs by SRB assay; conditions: RPMI-8226, 48 h, read-out: Activity
HL-60(TB) = experiment: Cytotoxicity against human HL-60(TB) cells assessed as cell growth at 10^-4 M after 48 hrs by SRB assay; conditions: HL-60, 48 h, read-out: Activity
OVCAR-3 [13] = experiment: Cytotoxicity against human OVCAR3 cells assessed as cell growth at 10^-8 M after 48 hrs by SRB assay; conditions: OVCAR-3, 48 h, read-out: Activity
K562 = experiment: Cytotoxicity against human K562 cells assessed as cell growth at 10^-4 M after 48 hrs by SRB assay; conditions: K562, 48 h, read-out: Activity
HCT-116 [14] = experiment: Cytotoxicity against human HCT116 cells assessed as cell growth at 10^-8 M after 48 hrs by SRB assay; conditions: HCT-116, 48 h, read-out: Activity
NCI-H23 = experiment: Cytotoxicity against human NCI-H23 cells assessed as cell growth at 10^-8 M after 48 hrs by SRB assay; conditions: NCI-H23, 48 h, read-out: Activity
CCRF-CEM = experiment: Cytotoxicity against human CCRF-CEM cells assessed as cell growth at 10^-8 M after 48 hrs by SRB assay; conditions: read-out: Activity
SW-620 [15] = experiment: Cytotoxicity against human SW620 cells after 48 hrs by SRB assay; conditions: SW-620, 48 h
786-0 [16] = experiment: Cytotoxicity against human 786-0 cells assessed as cell growth at 10^-6 M after 48 hrs by SRB assay; conditions: 786-0, 48 h, read-out: Activity
OVCAR-3 [17] = experiment: Cytotoxicity against human OVCAR3 cells assessed as cell growth at 10^-6 M after 48 hrs by SRB assay; conditions: OVCAR-3, 48 h, read-out: Activity
Malme-3M [18] = experiment: Cytotoxicity against human MALME-3M cells assessed as cell growth at 10^-6 M after 48 hrs by SRB assay; conditions: read-out: Activity
U-251 = experiment: Cytotoxicity against human U251 cells assessed as cell growth at 10^-6 M after 48 hrs by SRB assay; conditions: U-251, 48 h, read-out: Activity
HT-29 [19] = experiment: Cytotoxicity against human HT-29 cells assessed as cell growth at 10^-6 M after 48 hrs by SRB assay; conditions: HT-29, 48 h, read-out: Activity
HCT-15 = experiment: Cytotoxicity against human HCT15 cells assessed as cell growth at 10^-6 M after 48 hrs by SRB assay; conditions: HCT-15, 48 h, read-out: Activity
COLO 205 [20] = experiment: Cytotoxicity against human COLO205 cells assessed as cell growth at 10^-6 M after 48 hrs by SRB assay; conditions: COLO 205, 48 h, read-out: Activity
RPMI-8226 [21] = experiment: Cytotoxicity against human RPMI8226 cells assessed as cell growth at 10^-6 M after 48 hrs by SRB assay; conditions: RPMI-8226, 48 h, read-out: Activity
MOLT-4 = experiment: Cytotoxicity against human MOLT4 cells assessed as cell growth at 10^-6 M after 48 hrs by SRB assay; conditions: MOLT-4, 48 h, read-out: Activity
BT-549 [22] = experiment: Cytotoxicity against human BT549 cells assessed as cell growth at 10^-7 M after 48 hrs by SRB assay; conditions: BT-549, 48 h, read-out: Activity
[23] = Cytotoxicity against human UO31 cells assessed as cell growth at 10^-7 M after 48 hrs by SRB assay; conditions: UO-31, 48 h, read-out: Activity
A498 = experiment: Cytotoxicity against human A498 cells assessed as cell growth at 10^-7 M after 48 hrs by SRB assay; conditions: A498, 48 h, read-out: Activity
[24] = Cytotoxicity against human EKVX cells assessed as cell growth at 10^-5 M after 48 hrs by SRB assay; conditions: read-out: Activity

C=CCn1c(C)nc2cc(Nc3nc(Nc4ccc5nc(C)n(CC=C)c5c4)c4ccccc4n3)ccc21
growth at 100 µM (TK-10): -63% | growth at 100 µM [1]: -56% | growth at 100 µM (SN12C): -22% | growth at 0.1 µM (MDA-MB-435 [2]): 97% | growth at 0.1 µM (Malme-3M [3]): 97% | growth at 0.1 µM (NCI-H226): 82% | growth at 0.01 µM (BT-549 [4]): 100% | growth at 0.01 µM (MCF7): 101% | growth at 100 µM (786-0 [5]): -21% | growth at 100 µM [6]: -24% | growth at 100 µM (IGROV-1): -43% | growth at 100 µM (MDA-MB-435 [7]): -30% | growth at 100 µM (SK-MEL-2): -17% | growth at 100 µM (SNB-19): -35% | growth at 100 µM (SF-539): -94% | growth at 100 µM (SW-620 [8]): -8% | growth at 100 µM (HT-29 [9]): -50% | growth at 100 µM (HCT-116 [10]): 3% | growth at 100 µM (COLO 205 [11]): -6% | growth at 100 µM (RPMI-8226 [12]): -20% | growth at 100 µM (HL-60(TB)): -28% | growth at 0.01 µM (OVCAR-3 [13]): 100% | growth at 100 µM (K562): 2% | growth at 0.01 µM (HCT-116 [14]): 106% | growth at 0.01 µM (NCI-H23): 95% | growth at 0.01 µM (CCRF-CEM): 105% | GI50 (SW-620 [15]): 195 nM | TGI (SW-620 [15]): 388 nM | growth at 1 µM (786-0 [16]): -78% | growth at 1 µM (OVCAR-3 [17]): -78% | growth at 1 µM (Malme-3M [18]): 120% | growth at 1 µM (U-251): -88% | growth at 1 µM (HT-29 [19]): -87% | growth at 1 µM (HCT-15): 12% | growth at 1 µM (COLO 205 [20]): -75% | growth at 1 µM (RPMI-8226 [21]): 59% | growth at 1 µM (MOLT-4): -23% | growth at 0.1 µM (BT-549 [22]): 101% | growth at 0.1 µM [23]: 86% | growth at 0.1 µM (A498): 100%

C=CCn1c(C)nc2ccc(Nc3nc(Nc4ccc(F)cc4)nc4ccccc34)cc21
growth at 100 µM (TK-10): -63% | growth at 100 µM [1]: -82% | growth at 100 µM (SN12C): -49% | growth at 0.1 µM (MDA-MB-435 [2]): 100% | growth at 0.1 µM (Malme-3M [3]): 98% | growth at 0.1 µM (NCI-H226): 93% | growth at 0.01 µM (BT-549 [4]): 88% | growth at 0.01 µM (MCF7): 91% | growth at 100 µM (786-0 [5]): -71% | growth at 100 µM [6]: -15% | growth at 100 µM (IGROV-1): -51% | growth at 100 µM (MDA-MB-435 [7]): -53% | growth at 100 µM (SK-MEL-2): -70% | growth at 100 µM (SNB-19): -80% | growth at 100 µM (SF-539): -92% | growth at 100 µM (SW-620 [8]): -48% | growth at 100 µM (HT-29 [9]): -34% | growth at 100 µM (HCT-116 [10]): -77% | growth at 100 µM (COLO 205 [11]): -28% | growth at 100 µM (RPMI-8226 [12]): -36% | growth at 100 µM (HL-60(TB)): -45% | growth at 0.01 µM (OVCAR-3 [13]): 97% | growth at 100 µM (K562): -41% | growth at 0.01 µM (HCT-116 [14]): 99% | growth at 0.01 µM (NCI-H23): 94% | growth at 0.01 µM (CCRF-CEM): 99% | GI50 (SW-620 [15]): 2800 nM | LC50 (concentration killing 50% of cells) (SW-620 [15]): > 100000 nM | TGI (SW-620 [15]): 10700 nM | growth at 1 µM (786-0 [16]): 96% | growth at 1 µM (OVCAR-3 [17]): 97% | growth at 1 µM (Malme-3M [18]): 101% | growth at 1 µM (U-251): 83% | growth at 1 µM (HT-29 [19]): 91% | growth at 1 µM (HCT-15): 91% | growth at 1 µM (COLO 205 [20]): 95% | growth at 1 µM (RPMI-8226 [21]): 84% | growth at 1 µM (MOLT-4): 73% | growth at 0.1 µM (BT-549 [22]): 94% | growth at 0.1 µM [23]: 86% | growth at 0.1 µM (A498): 83%

C=CCn1c(C)nc2cc(Nc3nc(Nc4ccc5nc(C)n(CC=C)c5c4)nc4ccccc34)ccc21
growth at 10 µM [24]: 97.1%

C=CCn1c(C)nc2ccc(Nc3nc(Sc4ccc(N)cc4)nc4ccccc34)cc21
growth at 10 µM [24]: 96.5%
